Experimental data reported in patent publication US7253286B2, “Nitrogen-containing aromatic derivatives” (Eisai Co., Ltd, priority 2000, dated 2007).
Where a name gives a salt, the structure may show the parent alone.

Test system: Human Umbilical Vein Endothelial Cells (HUVECs)
Experiment: Inhibition against sandwich tube formation by vascular endothelial cells in response to stimulation by VEGF
Format: cell-based
Conditions: HUVEC in collagen gel sandwich, stimulation by VEGF (25 ng/ml VEGF and 10 ng/ml EGF), 4th day, total tube length, read-out: IC50 (concentration required for 50% inhibition of tube formation)
Method: Inhibition Against Sandwich Tube Formation by Vascular Endothelial Cells in Response to Stimulation by Angiogenic Factor
Human Umbilical Vein Endothelial Cells (HUVECS) were isolated by the same method as in Pharmacological Test Example 1, and were cultured in a 5% CO2 incubator (37° C.) using EGM-2 medium (purchased from Clonetics Corp.) until the cells reached confluency.
An ice-cooled mixture of collagen: 5× RPMI 1640: reconstitution buffer (all purchased from Nitta Gelatin, Inc.) at 7:2:1 was dispensed at 0.4 ml into each well of a 24-well plate, and then stationed for 40 minutes in a 5% CO2 incubator (37° C.) for gelling. The HUVECs were recovered using trypsin-EDTA and then suspended in human endothelial serum free medium (SFM, purchased from GIBCO BRL) containing added angiogenic factors [20 ng/ml FGF2 (purchased from GIBCO BRL) and 10 ng/ml EGF (purchased from GIBCO BRL), or 25 ng/ml VEGF (purchased from Wako Pure Chemical Industries Co., Ltd.) and 10 ng/ml EGF, or 30 ng/ml HGF (purchased from R&D Co.) and 10 ng/ml EGF], and the cell suspension was added at 0.4 ml to each well (with the cell counts differing slightly according to the HUVEC lot), and cultured overnight in a 5% CO2 incubator (37° C.). On the following day, the medium on the upper layer was aspirated off, and then 0.4 ml of an ice-cooled mixture of collagen: 5× RPMI 1640: reconstitution buffer (all purchased from Nitta Gelatin, Inc.) at 7:2:1 was superposed into each well prior to stationing for 4 hours in a 5% CO2 incubator (37° C.) for gelling. After adding 1.5 ml of an SFM solution containing each of the aforementioned angiogenic factors and a diluted test substance onto the upper layer, culturing was performed in a 5% CO2 incubator (37° C.). Upon aspirating off the culture supernatant in each well on the 4th day after addition of the test substance, 0.4 ml of a 3.3 mg/ml MTT solution dissolved in PBS (purchased from Sigma Corp.) was added to each well and culturing was performed for approximately 2 hours in a 5% CO2 incubator (37° C.). The tubes formed in the collagen gel of each well were stained by the MTT, the tube images were loaded into a computer (Macintosh), and the total length of the tubes was determined by image analysis software “MacScope” (purchased from Mitani Corp.). The ratio of the total length of the tubes formed in the well containing the test substance with respect to the total length of the tubes formed in the well containing no test substance was expressed as a percentage, and the concentration of each test substance required for 50% inhibition of tube formation (IC50) was determined from the ratio value.

SMILES	IC50 [nM]
CN1CCC(COc2cc3nccc(Oc4ccc5c(ccn5C(=O)Nc5nccs5)c4)c3cc2C#N)CC1 [Example 308]	5.2
COc1cc(Nc2cc(Oc3ccc(NC(=O)Nc4ccccc4)cc3)ncn2)cc(OC)c1OC [Example 578, N-Phenyl-N′-(4-(6-(3,4,5-trimethoxyphenylamino)pyrimidin-4-yloxy)phenyl)urea hydrochloride]	13
CCN(CC)CCCOc1cc2nccc(Oc3ccc(NC(=O)NC4CC4)c(F)c3)c2cc1C(N)=O [Example 372, 4-(4-(Cyclopropylaminocarbonyl)amino-3-fluorophenoxy)-7-(3-(N,N-diethylamino)propoxy)-6-quinolinecarboxamide]	44
COc1cc2nccc(Oc3ccc(NC(=O)NC4CC4)c(Cl)c3)c2cc1C(=O)NCCC#N [Example 440, N6-(2-Cyanoethyl)-4-(3-chloro-4-(((cyclopropylamino)carbonyl)amino)phenoxy)-7-methoxy-6-quinolinecarboxamide]	1.4
N#Cc1cc2c(Oc3ccc4c(ccn4C(=O)Nc4nccs4)c3)ccnc2cc1OCCCN1CCCC1 [Example 289, 5-[6-Cyano-7-(3-(pyrrolidin-1-yl)propoxy)quinolin-4-yloxy]indole-1-carboxylic acid (thiazol-2-yl)amide]	4.6
COCCNC(=O)c1cc2c(Oc3ccc(NC(=O)NC4CC4)c(Cl)c3)ccnc2cc1OCCOC [Example 249, N6-(2-Methoxyethyl)-4-(3-chloro-4-{[(cyclopropylamino)carbonyl]amino}phenoxy)-7-(2-methoxyethoxy)-6-quinolinecarboxamide]	1.6
COCCOc1cc2nccc(Oc3ccc(NC(=O)Nc4cccc(C#N)c4)cc3)c2cc1C#N [Example 19, N-(4-(6-Cyano-7-(2-methoxyethoxy)-4-quinolyl)oxyphenyl)-N′-(3-cyanophenyl)urea]	28
O=C(Nc1ccc(Oc2ncnc3[nH]c(-c4ccc(OCCCN5CCCC5)cc4)cc23)cc1Cl)NC1CC1 [Example 155]	1.4
COc1cc2nccc(Oc3ccc(NC(=O)Nc4nccs4)nc3)c2cc1OC [Example 224, N-(5-(6,7-Dimethoxyquinolin-4-yloxy)pyridin-2-yl)-N′-(thiazol-2-yl)urea]	26
CNC(=O)c1cc2c(Oc3ccc(NC(=O)NC4CC4)c(Cl)c3)ccnc2cc1OC [Example 442, N6-Methyl-4-(3-chloro-4-(((cyclopropylamino)carbonyl)amino)phenoxy)-7-methoxy-6-quinolinecarboxamide]	7.2
COc1cc2nccc(Oc3ccc(NC(=O)NC4CC4)c(Cl)c3)c2cc1C(=O)NC[C@H]1CCCO1 [Example 450, N6-((2R)Tetrahydro-2-furanylmethyl)-4-(3-chloro-4-(((cyclopropylamino)carbonyl)amino)phenoxy)-7-methoxy-6-quinolinecarboxamide]	4.5
COC(=O)CCCOc1cc2nccc(Oc3ccc(NC(=O)Nc4ccc(OC)cc4)cc3)c2cc1C#N [Example 70, N-(4-(6-Cyano-7-(3-methoxycarbonylpropoxy)-4-quinolyl)oxyphenyl)-N′-(4-methoxyphenyl)urea]	58
NC(=O)c1cc2c(Oc3ccc(NC(=O)NC4CC4)c(Cl)c3)ccnc2cc1OCCO [Example 386, 4-(3-Chloro-4-(cyclopropylaminocarbonyl)aminophenoxy)-7-(2-hydroxyethoxy)-6-quinolinecarboxamide]	10
CCN(CC)C[C@@H](O)COc1ccc(-c2cc3c(Oc4ccc(NC(=O)NC5CC5)c(Cl)c4)ncnc3[nH]2)cc1 [Example 157]	0.9
COc1cc2nccc(Oc3ccc(NC(=O)NC4CC4)c(Cl)c3)c2cc1C(=O)Nc1cccnc1 [Example 408, N6-(3-Pyridyl)-4-(3-chloro-4-(((cyclopropylamino)carbonyl)amino)phenoxy)-7-methoxy-6-quinolinecarboxamide]	39
CN1CCC(C(=O)Nc2cc(Oc3ccc(NC(=O)Nc4ccc(F)cc4)c(Cl)c3)ccn2)CC1 [Example 202, N4-[4-(3-Chloro-4-{[(4-fluoroanilino)carbonyl]amino}phenoxy)-2-pyridyl]-1-methyl-4-piperidinecarboxamide]	15
COCCOc1cc2nccc(Oc3ccc(NC(=O)Nc4nccs4)cc3)c2cc1C#N [Example 12, N-(4-(6-cyano-7-(2-methoxyethoxy)-4-quinolyl)oxyphenyl)-N′-(1,3-thiazol-2-yl)urea]	44
CN1CCCC(COc2cc3nccc(Oc4ccc(NC(=O)Nc5ccc(F)cc5)c(F)c4)c3cc2C#N)C1 (stereo not shown) [Example 127, N-(4-(6-Cyano-7-((1-methylpiperidin-3-yl)methoxy)-4-quinolyl)oxy-2-fluorophenyl)-N′-(4-fluorophenyl)urea]	7.5
N#Cc1cc2c(Oc3ccc(NC(=O)Nc4nccs4)c(F)c3)ccnc2cc1OCC1CCNCC1 [Example 503, N-{4-[6-Cyano-7-(piperidin-4-ylmethoxy)quinolin-4-yloxy]-2-fluorophenyl}-N′-(2-thiazolyl)urea]	6.4
CCN(CC)CCCOc1cc2nccc(Oc3ccc4c(ccn4C(=O)Nc4nccs4)c3)c2cc1C#N [Example 300, 5-[6-Cyano-7-(3 diethylaminopropoxy)quinolin-4-yloxy]indole-1-carboxylic acid (thiazol-2-yl)amide]	7.5
CCNC(=O)n1ccc2cc(Oc3ccnc4cc(OC)c(C(=O)NOC)cc34)ccc21 [Example 520, 6-Methoxycarbamoyl-7-methoxy-4-((1-ethylcarbamoyl)indol-5-yloxy)quinoline]	1.5
COc1cc2nccc(Oc3ccc(NC(=O)Nc4ccccc4)cn3)c2cc1OC [Example 129, N-6-((6,7-Dimethoxy-4-quinolyl)oxy)-3-pyridyl-N′-phenylurea]	40
CCNC(=O)n1ccc2cc(Oc3ccnc4cc(OCC5CCN(C)CC5)c(C#N)cc34)ccc21 [Example 304, 6-Cyano-4-(1-ethylcarbamoylindol-5-yloxy)-7-[(1-methylpiperidin-4-yl)methyloxy]quinoline]	0.3
CS(=O)(=O)CCCOc1cc2nccc(Oc3ccc(NC(=O)Nc4ccc(F)cc4)cc3)c2cc1C#N [Example 108, N-(4-(6-Cyano-7-(3-(methylsulfonyl)propoxy)-4-quinolyloxy)phenyl)-N′-(4-fluorophenyl)urea]	4.9
C#Cc1c(Oc2ccc(NC(=O)Nc3ccc(F)cc3)cc2)ccnc1N(C(=O)C1CC1)C(=O)C1CC1 [Example 186, N1-Cyclopropylcarbonyl-N1-[3-(1-ethynyl)-4-(4-{[(4-fluoroanilino)carbonyl]amino}phenoxy)-2-pyridyl]-1-cyclopropanecarboxamide]	23
CCCNC(=O)c1cc2c(Oc3ccc(NC(=O)NC4CC4)c(Cl)c3)ccnc2cc1OC [Example 444, N6-Propyl-4-(3-chloro-4-(((cyclopropylamino)carbonyl)amino)phenoxy)-7-methoxy-6-quinolinecarboxamide]	5.5
CS(=O)(=O)CCOc1cc2nccc(Oc3ccc(NC(=O)Nc4ccc(F)cc4)cc3)c2cc1C#N [Example 59, N-(4-(6-Cyano-7-(2-(methylsulfonyl)ethoxy)-4-quinolyl)oxyphenyl)-N′-(4-fluorophenyl)urea]	170
CCOCCCNC(=O)n1ccc2cc(Oc3ccnc4cc(OC)c(C(N)=O)cc34)ccc21 [Example 326, 6-Carbamoyl-4-[1-(3-ethoxypropylcarbamoyl)1H-indol-5-yloxy]-7-methoxyquinoline]	1
